Source: a compilation of properties of binary mixtures (doi:10.1016/j.molliq.2017.11.153)

Assay: xn = mol fraction of the nth substance listed
Conditions: 101 kPa

CC1COC(=O)O1 (configuration not stated) + CCCC[n+]1ccccc1.N#C[N-]C#N
x2 = 0
Conditions	viscosity [mPa·s]
288.15 K	3.064
293.15 K	2.738
298.15 K	2.469
303.15 K	2.24
308.15 K	2.042
313.15 K	1.873
323.15 K	1.595
328.15 K	1.464
338.15 K	1.277
343.15 K	1.195
348.15 K	1.122
353.15 K	1.056

CCCC[n+]1ccccc1.N#C[N-]C#N + CC1COC(=O)O1
Conditions	electrical conductivity [S/m]	viscosity [mPa·s]
288.15 K, x1 = 0.197	0.742	6.99
288.15 K, x1 = 0.3005	1.42	9.49
288.15 K, x1 = 0.4003	1.56	13.97
288.15 K, x1 = 0.4997	1.5	17.55
288.15 K, x1 = 0.6002	1.73	22.95
288.15 K, x1 = 0.7011	1.64	29.62
288.15 K, x1 = 0.7885	1.86	36.03
288.15 K, x1 = 0.9008	1.76	44.07
288.15 K, x1 = 1	1.05	51.49
293.15 K, x1 = 0.1003	0.749	4.23
293.15 K, x1 = 0.197	0.986	5.99
293.15 K, x1 = 0.3005	1.54	8.102
293.15 K, x1 = 0.4003	1.7	11.73
293.15 K, x1 = 0.6002	1.89	18.85
293.15 K, x1 = 0.7011	1.8	24.05
293.15 K, x1 = 0.7885	2.06	29.56
293.15 K, x1 = 0.9008	1.96	36.12
293.15 K, x1 = 1	1.24	41.05
298.15 K, x1 = 0.1003	0.979	3.756
298.15 K, x1 = 0.197	1.25	5.229
298.15 K, x1 = 0.4003	1.92	10
298.15 K, x1 = 0.4997	1.92	12.17
298.15 K, x1 = 0.6002	2.1	15.72
298.15 K, x1 = 0.9008	2.19	29.65
298.15 K, x1 = 1	1.48	33.27
303.15 K, x1 = 0.1003	1.18	3.361
303.15 K, x1 = 0.197	1.49	4.616
303.15 K, x1 = 0.4003	2.13	8.585
303.15 K, x1 = 0.4997	2.16	10.33
303.15 K, x1 = 0.7011	2.3	16.61
303.15 K, x1 = 0.7885	2.54	20.61
303.15 K, x1 = 0.9008	2.44	24.44
303.15 K, x1 = 1	1.75	27.62
308.15 K, x1 = 0.197	1.71	4.109
308.15 K, x1 = 0.4003	2.36	7.468
308.15 K, x1 = 0.4997	2.37	8.918
308.15 K, x1 = 0.6002	2.6	11.36
308.15 K, x1 = 0.7885	2.82	17.47
308.15 K, x1 = 0.9008	2.72	20.45
308.15 K, x1 = 1	2.01	22.9
313.15 K, x1 = 0.197	1.97	3.689
313.15 K, x1 = 0.4003	2.62	6.563
313.15 K, x1 = 0.4997	2.63	7.769
313.15 K, x1 = 0.6002	2.85	9.83
313.15 K, x1 = 0.7011	2.8	12.08
313.15 K, x1 = 0.7885	3.1	14.86
313.15 K, x1 = 0.9008	3	17.22
313.15 K, x1 = 1	2.26	19.3
318.15 K, x1 = 0.197	2.19	3.335
318.15 K, x1 = 0.3005	2.75	4.265
318.15 K, x1 = 0.4003	2.89	5.812
318.15 K, x1 = 0.4997	2.92	6.839
318.15 K, x1 = 0.6002	3.13	8.579
318.15 K, x1 = 0.7885	3.39	12.44
318.15 K, x1 = 0.9008	3.28	14.84
318.15 K, x1 = 1	2.54	16.73
323.15 K, x1 = 0.1003	2	2.291
323.15 K, x1 = 0.4003	3.17	5.183
323.15 K, x1 = 0.4997	3.27	6.066
323.15 K, x1 = 0.6002	3.42	7.559
323.15 K, x1 = 0.9008	3.6	12.65
323.15 K, x1 = 1	2.88	14.44
328.15 K, x1 = 0.1003	2.23	2.121
328.15 K, x1 = 0.197	2.71	2.794
328.15 K, x1 = 0.3005	3.33	3.481
328.15 K, x1 = 0.4003	3.48	4.656
328.15 K, x1 = 0.4997	3.61	5.42
328.15 K, x1 = 0.7011	3.77	8.083
328.15 K, x1 = 0.7885	4.05	9.34
328.15 K, x1 = 0.9008	3.93	11.05
333.15 K, x1 = 0.1003	2.43	1.968
333.15 K, x1 = 0.4003	3.83	4.209
333.15 K, x1 = 0.4997	3.94	4.876
333.15 K, x1 = 0.6002	4.07	6.001
333.15 K, x1 = 0.7885	4.4	8.312
333.15 K, x1 = 0.9008	4.29	9.53
338.15 K, x1 = 0.1003	2.64	1.834
338.15 K, x1 = 0.3005	4.02	2.906
338.15 K, x1 = 0.4003	4.17	3.827
338.15 K, x1 = 0.4997	4.3	4.429
338.15 K, x1 = 0.6002	4.43	5.401
338.15 K, x1 = 0.7011	4.53	6.433
338.15 K, x1 = 0.7885	4.78	7.324
338.15 K, x1 = 0.9008	4.68	8.488
338.15 K, x1 = 1	3.83	9.79
343.15 K, x1 = 0.1003	2.85	1.716
343.15 K, x1 = 0.197	3.42	2.232
343.15 K, x1 = 0.3005	4.37	2.675
343.15 K, x1 = 0.4003	4.53	3.498
343.15 K, x1 = 0.4997	4.68	4.039
343.15 K, x1 = 0.6002	4.83	4.891
343.15 K, x1 = 0.7885	5.21	6.724
343.15 K, x1 = 1	4.21	8.771
348.15 K, x1 = 0.1003	3.07	1.612
348.15 K, x1 = 0.197	3.69	2.089
348.15 K, x1 = 0.4003	4.92	3.213
348.15 K, x1 = 0.4997	5.12	3.704
348.15 K, x1 = 0.6002	5.3	4.454
348.15 K, x1 = 0.7885	5.72	6.247
348.15 K, x1 = 0.9008	5.61	6.724
348.15 K, x1 = 1	4.53	7.884
353.15 K, x1 = 0.1003	3.26	1.519
353.15 K, x1 = 0.197	3.93	1.964
353.15 K, x1 = 0.3005	5.11	2.296
353.15 K, x1 = 0.4997	5.58	3.414
353.15 K, x1 = 0.6002	5.79	4.076
353.15 K, x1 = 0.7011	5.98	4.787
353.15 K, x1 = 0.7885	6.29	5.647
353.15 K, x1 = 0.9008	6.14	6.159
353.15 K, x1 = 1	4.93	7.129
